The record followed here is a melting point compilation (Tetko et al.; mined from patent text by program, amines drawn as free bases though some values may be those of a salt).

The structures appear in SMILES notation. Where only a bound is given, the exact number is not on record here.

The term melting point denotes the temperature of the solid-liquid transition. In turn, `CCOC(=O)C1=C(C)N(C(=O)c2ccccc2)C(C)=C(C(=O)OCC)C1c1cccc([N+](=O)[O-])c1` displayed a melting point of 98 to 101 °C.
In the case of `CCCCC1=Nc2sccc2C(=CN)N1CCC` it was 45 to 47 °C.
In the case of `CC(C)(C)[Si](C)(C)OC1=Cc2ccccc2C1[Si](C)(C)C1C(O[Si](C)(C)C(C)(C)C)=Cc2ccccc21` (stereo not drawn) it was 92 to 94 °C.
The same measure for `COc1cc(Nc2c(C#N)cnc3cc(/C=C/CN4CCOCC4)c(OC)cc23)c(Cl)cc1Cl`: 105 to 106 °C; for `COc1ccccc1C(=O)Nc1ccccc1C(c1ccc(O)cc1)c1ccc(O)cc1`: 258 °C.
In turn, `CCOc1cscc1C(=O)Nc1cc(Cl)ccc1SSc1ccc(Cl)cc1NC(=O)c1cscc1OCC` had a melting point of 179 to 181 °C.
The same measure for `OCCOCCn1ccc2ncnc(Nc3ccc(OCc4cccc(F)c4)c(Cl)c3)c21`: 168 to 169 °C; for `O=C(Cc1ccc(Br)cn1)Nc1ccccn1`: 131 °C.
The same measure for `CN1CCC(Sc2ccccc2)C(C#N)C1` (stereo not drawn): 114 °C; for `N#Cc1c(Cl)nc2n(c1=O)CCS2`: 148 to 150 °C.
Compound `Cc1c(Nc2c(C#N)cncc2-c2cnc(C=O)n2C)ccc2[nH]ccc12` gave a melting point of 200 to 202 °C.
The same measure for `CCOC(=O)c1ncn2c1CN(C)C(=S)c1ccccc1-2`: 164 to 165 °C.
`CC(=C(C#N)C#N)c1ccc2cc(N3CCN(C(=O)OC(C)(C)C)CC3)ccc2c1`: the melting point lay within 169 to 171 °C.
`O=C1Nc2ccccc2N(C(=O)CN2C(=O)c3ccccc3C2=O)C2CCCC12` (stereo not drawn) displayed a melting point of 207 to 208 °C.
The same measure for `c1cc(-c2csc(Cc3ncc[nH]3)n2)ccn1`: 178 to 180 °C; for `O=[N+]([O-])c1ccc(-c2nc(-c3cccs3)no2)cc1`: 169 to 171 °C.
As for `CCOc1nn(-c2ccc(C(F)(F)F)cn2)cc1CCCCOc1ccccc1CC(=O)O`, the melting point lay in the range of 109 to 110 °C.
Take `O=C(/C=C/c1ccc2ccccc2c1)Nc1cc(Cl)c(Cl)cc1S(=O)(=O)O`: the melting point was determined as 229 °C.
Take `COc1cccc2c(CCC3CC(=O)CCC3=O)cccc12` (stereo not drawn): the melting point was 94 to 100 °C.
The same measure for `COC(=O)COc1cc2c(c3c1c(C(=O)C(N)=O)c(C)n3Cc1ccccc1Br)CCC2`: 200 to 207 °C; for `Cc1cccc(-c2c(C)n(C)c(=O)n(C)c2=O)c1`: 137 to 139 °C; for `CCN1CCN(CC/C=C/c2cc3ncc(C#N)c(Nc4cc(OC)c(Cl)cc4Cl)c3cc2OC)CC1`: 129 to 131 °C.
In the case of `O=C(Nc1ccc2ccccc2c1-c1c(P(c2ccccc2)c2ccccc2)ccc2ccccc12)c1ccccc1` it was 94.8 °C.
In the case of `Cc1cccn2c3c(nc12)-c1ccccc1C(=O)C3=O` it was greater than 260 °C; in that of `CS(=O)(=O)c1ccc(C2=C(c3ccc(-c4cscn4)cc3)C(=O)OC2)cc1`, 237 °C.
In turn, `NCCCCCCCCCCCCCCCCCC(=O)O` returned a melting point of 162 to 163 °C.
`CCOP(=O)(Cc1ccccc1CN1C(=O)c2ccccc2C1=O)OCC` showed a melting point of 91 to 92 °C.
Take `O=C(O)CCC(O)c1ccc(-c2ccccc2F)cc1` (stereo not drawn): the melting point lay within 174 to 175 °C.
`O=S1CCN(CC2CN=C(c3cc4cccc(NS(=O)(=O)c5ccccn5)c4[nH]3)S2)CC1` (stereo not drawn): the melting point stood at 270 °C.
In the case of `CC(=O)NC[C@H]1CN(c2ccc3c(c2)CC(C)N3C(=O)OCc2ccccc2)C(=O)O1` (stereo partly drawn), the melting point was in the range of 170 to 175 °C.
The same measure for `CS(=O)c1ccc(-c2nn(CC3CC3)c(=O)cc2-c2ccc(F)cc2)cc1` (stereo not drawn): 133 to 134 °C; for `CN1CCC(NC(=O)c2cccc3oc(-c4ccccc4)nc23)CC1`: 126 to 128 °C; for `CCC(C)NC(=O)NCC=CCOc1cc(CN2CCCCC2)ccn1` (stereo not drawn): 72 to 74 °C.
Consider `Cc1noc(NS(=O)(=O)c2ccsc2C/C=C/c2ccc3c(c2)OCO3)c1Br`, for which the melting point lay within 147 to 149 °C.
In turn, `O=[N+]([O-])c1cc(-c2nc3ccccc3s2)cc([N+](=O)[O-])c1` yielded a melting point of 73.5 to 84.5 °C.
As for `O=C1CCCc2c1ccc(OCc1ccccc1)c2Cl`, the melting point lay in the range of 99 to 100 °C.
Compound `COc1ccc2[nH]c(C(=O)c3ccc(F)cc3)cc2c1` registered a melting point of 167 to 169 °C.
The same measure for `CCCNC(=O)C(C#N)=C(SC)SC`: 65 to 66 °C; for `O=C(CCCCCOc1ccc(OCc2ccccc2)cc1)C(F)(F)F`: 59 to 60 °C.
In the case of `O=C(O)C1(c2ccc(Cl)cc2)OCC2(CO1)c1ccccc1Oc1ccccc12` it was 244 to 246 °C.
The same measure for `COC(=O)c1ccccc1Sc1c(O)c2c(Cl)cc(Cl)cc2[nH]c1=O`: 158 to 160 °C; for `COc1cccc(CNC(=O)c2nc(OC)c3ccccc3n2)c1`: 129 to 130 °C; for `O=C(Nc1cc2cccnc2cc1N1CCCCC1)c1csc2cncnc12`: greater than 300 °C.
`CN1CCC(Oc2ccc(Br)cc2C(N)=O)C1` (stereo not drawn): the melting point was in the range of 160 to 162 °C.
In the case of `Cc1cc(N)ccc1C(O)c1ccccn1` (stereo not drawn) it was 102 to 104 °C.
The same measure for `Cc1ccc(C#CC2(O)CN3CCC2CC3)nc1` (stereo not drawn): 176 to 180 °C.
With `Cc1ccc(S(=O)(=O)c2ccc3c(c2)c(CCN(C)C(=O)OC(C)(C)C)c(C)n3C)cc1`, the melting point was 129 to 133 °C.
In the case of `CCN(CC)CCN1C(=O)C(OC(C)=O)C(c2ccc(OC)cc2)Sc2c1ccc1ccccc21` (stereo not drawn) it was 148 to 149 °C; in that of `Nc1nc(NCCc2ccc(C=CC3CCCCC3)cc2)nc2c1ncn2C1OC(CO)C(O)C1O` (stereo not drawn), 161 to 164 °C; in that of `COCCOc1cc(OC)c2c(=O)[nH]c(-c3cc(C)nc(C)c3)nc2c1`, 229 to 230 °C.
In the case of `O=C1Nc2cccnc2Nc2ccsc21` it was 273 to 279 °C; in that of `CC(=O)Nc1nc(O)c2cc(C=Cc3ccc(C(=O)O)cc3)cnc2n1`, greater than 300 °C; in that of `Cc1nc(Nc2ccc(C(C)C)cc2Br)c([N+](=O)[O-])c(-c2ccccc2C(F)(F)F)n1`, 146 °C.
`CCCOc1ccc(CCC(=O)O)cc1-c1nc2c(C)cccc2c(=O)[nH]1`: the melting point was 215 to 216 °C.
In the case of `CCCc1cc(-c2csc(-c3ccc(OCC)c(OCC)c3)n2)cc(C(=O)O)c1O` it was 179 to 180 °C; in that of `Cc1ccc2c(c1)N(CC(=O)NC(C)(C)C)C(=O)C(Br)CC2CC1CCCCC1` (stereo not drawn), 166 to 170 °C; in that of `CCOC(=O)c1oc2cccc(CCO)c2c1C`, 88 to 90 °C.
Take `CCOC(=O)C(NS(=O)(=O)c1ccc(C)cc1)C1CCOC1C#N` (stereo not drawn): the melting point fell in the range of 105 to 107 °C.
In the case of `FC(F)(F)c1ccc2nc(N3CCN(c4ccncc4C(F)(F)F)CC3)[nH]c2c1` it was 220 to 224 °C.
In the case of `Cc1cccc(C)c1NC(=O)NC1(c2ccccc2)CCCC1` it was 227 to 229 °C; in that of `Fc1nccc(I)c1CCCCl`, 24 to 25 °C.
In the case of `O=C(NOCCO)c1cc(Br)c(F)c(F)c1Nc1ccc(I)cc1F` it was 189 to 190 °C; in that of `Cc1cc(C)cc(SCC(=O)c2ccc(C(C)C)cc2)c1`, 46 to 47 °C.
